In data set [1] the test system is Mus musculus. The data set is described as follows: Anticonvulsant activity in ip dosed Mus musculus albino (mouse) assessed as protection against maximal electroshock-induced seizures after 0.5 hr. It is filed as functional. Particulars: read-out: MED.
The species entered for data set [2] is Mus musculus. The data set is described as follows: Protective index, ratio of TD50 for Mus musculus albino (mouse) to ED50 for Mus musculus albino (mouse) by maximal electroshock-induced seizures test. Type of data set: functional.
The test system of data set [3] is Mus musculus. The data set is described as follows: Anticonvulsant activity in ip dosed Mus musculus albino (mouse) assessed as protection against maximal electroshock-induced seizures after 4 hr. Type of data set: functional. Particulars: read-out: MED.
Data set [4] deals with Mus musculus. In words: Protective index, ratio of TD50 for Mus musculus albino (mouse) to ED50 for Mus musculus albino (mouse) by subcutaneous pentylenetetrazol-induced seizures test. Type of data set: functional.
Data set [5] concerns Mus musculus. The data set is described as follows: Anticonvulsant activity in ip dosed Mus musculus albino (mouse) assessed as protection against maximal electroshock-induced seizures. It is filed as functional.
In data set [6] the test system is Mus musculus. The data set is described as follows: Hepatoxicity in Mus musculus albino (mouse) assessed as effect on SGOT level in serum at 3 to 30 mg/kg, ip. Type of data set: toxicity, organism-based. The arrangement: dose 3-30 mg/kg, route intraperitoneal. Particulars: in vivo.
The nature of data set [7]: Neurotoxicity in ip dosed Mus musculus albino (mouse) after 0.5 hr rotorod test. Type of data set: toxicity, organism-based. Particulars: albino, in vivo.
Data set [8] deals with Mus musculus. In words: Anticonvulsant activity in ip dosed Mus musculus albino (mouse) assessed as protection against subcutaneous pentylenetetrazol-induced seizures after 0.5 hr. Particulars: read-out: MED. Type of data set: functional.
Data set [9] is described as follows: Neurotoxicity in ip dosed Mus musculus albino (mouse) after 4 hr rotorod test. Type of data set: toxicity, organism-based. Particulars: albino, in vivo.
For data set [10], the system named is Mus musculus. The data set is described as follows: Anticonvulsant activity in Mus musculus albino (mouse) assessed as protection against subcutaneous pentylenetetrazol-induced seizures at 300 mg/kg, ip after 4 hr. The arrangement: dose 300 mg/kg. Type of data set: functional, organism-based.
The subject of data set [11] is Mus musculus. In words: Hepatoxicity in Mus musculus albino (mouse) assessed as effect on SGPT level in serum at 3 to 30 mg/kg, ip. Type of data set: toxicity, organism-based. Also on record: dose 3-30 mg/kg, route intraperitoneal. The settings on record: in vivo.
Data set [12] has as its system Mus musculus. In words: Hepatoxicity in Mus musculus albino (mouse) assessed as effect on alkaline phosphatase level in serum at 3 to 30 mg/kg, ip. Also on record: dose 3-30 mg/kg, route intraperitoneal. It is filed as toxicity, organism-based. The settings on record: in vivo.
For data set [13], the system named is Mus musculus. The data set is described as follows: Anticonvulsant activity in ip dosed Mus musculus albino (mouse) assessed as protection against subcutaneous pentylenetetrazol-induced seizures. Type of data set: functional.
In data set [14] the test system is Mus musculus. In words: Anticonvulsant activity in Mus musculus albino (mouse) assessed as protection against subcutaneous pentylenetetrazol-induced seizures at 300 mg/kg, ip after 0.5 hr. It is filed as functional, organism-based. Also on record: dose 300 mg/kg.
Data set [15] deals with Mus musculus. In words: Anticonvulsant activity in ip dosed Mus musculus albino (mouse) assessed as protection against subcutaneous pentylenetetrazol-induced seizures after 4 hr. Type of data set: functional. The settings on record: read-out: MED.

Activity calls are given as the source filed them. The rule behind the calls is not given here.

As for `Cc1ccc(Nc2nnc(Nc3nc(-c4ccc([N+](=O)[O-])cc4)cs3)s2)cc1`, the minimal effective dose in [1] stood at 30 mg/kg; in data set [3], 100 mg/kg; in data set [8], 300 mg/kg. The “Ratio TD50/ED50” value in data set [2] is 11.3; in data set [4], 0.9. The ED50 was 19.1 mg/kg in data set [5] and 232 mg/kg in data set [13]. Moreover, the Activity entry in [6], in data set [11] and in [12] was “Toxic” each time. Besides, the MTD at 0.5 h in data set [7] amounted to 300 mg/kg. The molecule also displayed a TD50 at 0.5 h in data set [7] of 216 mg/kg. For the same molecule, in data set [9], the MTD at 4 h was 300 mg/kg. Moreover, the outcome in [10] was inactive.
Regarding `COc1ccc(Nc2nnc(Nc3nc(-c4ccc(Br)cc4)cs3)s2)cc1`, the minimal effective dose in [1] turned out to be 30 mg/kg; in data set [3], 100 mg/kg; in [8] it was 100 mg/kg. The “Ratio TD50/ED50” value in data set [2] is 25.8; in data set [4] it was 8.9. Further, the ED50 in data set [5] came to 27.6 mg/kg; in [13], 79.4 mg/kg. The Activity result in [6], in data set [11] and in data set [12] was “Toxic” throughout. In data set [7], this molecule showed an MTD at 0.5 h of 300 mg/kg. This molecule also came in with a TD50 at 0.5 h in data set [7] of 713 mg/kg. Moreover, in data set [9], the MTD at 4 h is 300 mg/kg. The result in data set [10] was inactive.
In the case of `COc1ccc(Nc2nnc(Nc3nc(-c4ccc([N+](=O)[O-])cc4)cs3)s2)cc1`, the minimal effective dose came out at 30 mg/kg in data set [1], 30 mg/kg in data set [3] and 100 mg/kg in data set [15]. In addition, the “Ratio TD50/ED50” value in data set [2] came to 43.6; in [4], 1.2. Further, the ED50 in data set [5] stood at 12.6 mg/kg; in [13], 433 mg/kg. Also, in [14], the result was inactive. The Activity entry in data set [6], in data set [11] and in [12] was “Toxic” each time. In [7], this molecule came in with an MTD at 0.5 h of 300 mg/kg. Further, in data set [7], the TD50 at 0.5 h turned out to be 550 mg/kg. The MTD at 4 h in [9] was 300 mg/kg.

The values above are taken from ChEMBL document CHEMBL3045294, “Synthesis, anticonvulsant and toxicity screening of thiazolylthiadiazole derivatives” (Med Chem Res, 2011).
